Results published in paper PMC7589491, “Biomimetic Artificial Membrane Permeability Assay over Franz Cell Apparatus Using BCS Model Drugs” (Pharmaceutics, 2020).
Read-outs that look alike come from different tables or passages of the source.

How the values were obtained:
[1] = design: method as in PMID 25840123; conditions: cited from earlier work
[2] = system: Caco-2 cells; conditions: cited from earlier work
[3] = Franz–PAMPA permeation study (lipid-impregnated artificial membrane on Franz cells); conditions: for Papp at 12 h, 10 mg/mL: PAMPA; for Permeability classification in Franz–PAMPA: metoprolol as high permeability marker, best fit method
[4] = cited from earlier work
[5] = cited from earlier work; remark: listed apart in the source
[6] = pH 7.4; cited from earlier work
[7] = Dose number (D0) in donor compartment; format: physicochemical; conditions: 10 mg/mL in donor, not under infinite dose conditions
[8] = fraction of dose absorbed in humans; cited from earlier work
[9] = cited from earlier work; remark: listed apart in the source
[10] = in vitro; conditions: PAMPA
[11] = Permeation across non-impregnated membrane on Franz cells; format: in vitro ADME; conditions: PAMPA, pH 7.4; as worded; read-out: Papp non-impregnated one across Franz–PAMPA
[12] = pH 7.4, Papp Franz–PAMPA, PBS pH 7.4, 37 °C, 500 rpm, 12 h, n = 3, best fit of linear portion (sink equation)
[13] = pH 7.4, Papp Non-Sink Arthurson, Franz–PAMPA data, non-sink equation
[14] = pH 7.4, Papp Non-Sink Arthurson
[15] = pH 7.4, Papp across Franz–PAMPA

Row | Compound | Papp Caco-2 [2] [×10⁻⁶ cm/s] | Papp at 12 h, 10 mg/mL [3, 12] [×10⁻⁶ cm/s] | Papp at 12 h, 10 mg/mL [3, 13] [×10⁻⁶ cm/s] | Log D pH 7.4 [4] | Papp Corti [5] [×10⁻⁶ cm/s] | Papp PAMPA pH 7,4 [6] | D0 [7] | Fa(%) [8] [%] | Intrinsic Solubility [9] [mg/mL] | also measured
1 | Nc1nc2c(ncn2COCCO)c(=O)[nH]1 [Acyclovir] | 0.3 | 0.4 | 0.4 | −1.7 | 9.1 | – | – | – | – | Papp Permeapad™ [1]: 7.9 ×10⁻⁶ cm/s; LogP [4]: −1.7
2 | CC1(C)S[C@@H]2[C@H](NC(=O)[C@H](N)c3ccc(O)cc3)C(=O)N2[C@H]1C(=O)O [Amoxicillin] | 0.8 | 0.85 | 0.07 | – | – | 1.5 × 10^−6 cm/s | – | – | – | LogP [4]: 0.9
3 | CC(C)NCC(O)COc1ccc(CC(N)=O)cc1 (stereo not shown) [Atenolol] | – | – | – | – | – | – | ≤ 0.01 | – | – | –
4 | Cn1c(=O)c2c(ncn2C)n(C)c1=O [Caffeine] | – | 36.2 | 53.3 | – | 41.1 | 10.8 × 10^−6 cm/s | ≤ 0.01 | – | – | Papp Permeapad™ [1]: 20.4 ×10⁻⁶ cm/s; Permeability classification in Franz–PAMPA [3]: highly permeable
5 | NC(=O)N1c2ccccc2C=Cc2ccccc21 [Carbamazepine] | – | 5.97 | – | – | – | – | – | 100 | 0.12 | –
6 | CN/C(=N/CCSCc1nc[nH]c1C)NC#N [Cimetidine] | 0.7 | 35.6 | 31 | 0.4 | – | – | – | 93 | 6.0 | Permeability classification in Franz–PAMPA [3]: highly permeable
7 | O=C(O)Cc1ccccc1Nc1c(Cl)cccc1Cl [Diclofenac] | – | – | – | 1.2 | – | – | – | 100 | – | Papp at 12 h, 10 mg/mL ([10]; pH 7.4, Papp Franz–PAMPA): 68.1 ×10⁻⁶ cm/s; Papp at 12 h, 10 mg/mL [10, 14]: 105 ×10⁻⁶ cm/s; Permeability classification in Franz–PAMPA: highly permeable
8 | NS(=O)(=O)c1cc2c(cc1Cl)NCNS2(=O)=O [Hydrochlorothiazide] | 0.5 | – | – | – | 31 | 0.1 × 10^−6 cm/s | – | 70 | – | Papp at 12 h, 10 mg/mL ([10]; pH 7.4, Papp Franz–PAMPA): 2.74 ×10⁻⁶ cm/s; Papp at 12 h, 10 mg/mL [10, 14]: 2.7 ×10⁻⁶ cm/s
9 | CC(C)Cc1ccc(C(C)C(=O)O)cc1 (stereo not shown) [Ibuprofen] | – | – | – | 0.7 | – | 6.8 × 10^−6 cm/s | – | 93 | 0.01 | Papp Permeapad™ [1]: 16.6 ×10⁻⁶ cm/s; LogP [4]: 3.1
10 | CC(C(=O)O)c1cccc(C(=O)c2ccccc2)c1 (stereo not shown) [Ketoprofen] | 20.1 | 12.1 | – | – | 42.7 | 16.7 × 10^−6 cm/s | – | – | – | –
11 | OC[C@@H](O)[C@@H](O)[C@H](O)[C@H](O)CO [Mannitol] | – | – | – | – | – | – | – | – | – | Papp at 12 h, 10 mg/mL [3, 15]: 0.32 ×10⁻⁶ cm/s; Papp at 10 mg/mL [11]: 0.32 ×10⁻⁶ cm/s
12 | C[C@](N)(Cc1ccc(O)c(O)c1)C(=O)O [Methyldopa] | 0.2 | – | – | – | 3.2 | – | – | 41 | – | LogP [4]: 0.4
13 | COCCc1ccc(OCC(O)CNC(C)C)cc1 (stereo not shown) [Metoprolol] | 23.7 | 15.8 | 59 | – | 48.1 | 3.5 × 10^−6 cm/s | ≤ 0.01 | – | 1000.0 | Papp Permeapad™ [1]: 1 ×10⁻⁶ cm/s; Papp at 12 h, 10 mg/mL [3, 15]: 16.1 ×10⁻⁶ cm/s; Papp at 10 mg/mL [11]: 16.1 ×10⁻⁶ cm/s
14 | COc1ccc2cc([C@H](C)C(=O)O)ccc2c1 [Naproxen] | – | – | – | – | – | – | ≤ 0.01 | – | – | –
15 | CN1C(C(=O)Nc2ccccn2)=C(O)c2ccccc2S1(=O)=O [Piroxicam] | 35.6 | 11 | 9.6 | −0.07 | – | 8.2 × 10^−6 cm/s | – | 100 | 0.11 | Permeability classification in Franz–PAMPA [3]: low permeability drugs
16 | CC(C)NCC(O)COc1cccc2ccccc12 (stereo not shown) [Propranolol] | 41.9 | 33.1 | 88.4 | – | 39.7 | 23.5 × 10^−6 cm/s | ≤ 0.01 | – | 33.0 | Permeability classification in Franz–PAMPA [3]: highly permeable
17 | CNC(=C[N+](=O)[O-])NCCSCc1ccc(CN(C)C)o1 [Ranitidine] | 0.5 | 6.81 | 5.3 | −0.3 | 21.5 | 0.5 × 10^−6 cm/s | ≤ 0.01 | – | 100.0 | –
18 | Cn1c(=O)c2[nH]cnc2n(C)c1=O [Theophylline] | – | – | – | −0.05 | – | – | – | – | 8.33 | –
19 | COc1cc(Cc2cnc(N)nc2N)cc(OC)c1OC [Trimethoprim] | 83 | 6.61 | 7.7 | – | 45.5 | 5.0 × 10^−6 cm/s | – | 97 | – | –
